# In patent US6376426B1, “Herbicidal 3-(heterocycl-1-yl)-uracils” (BASF Aktiengesellschaft, priority 1999, dated 2002):
# Experiments:
# Format in all cases: in vivo
# Triticum aestivum [1] = experiment: Post-emergence herbicidal test, TRZAW; conditions: POST, 21 days after spraying
# Protocol: (§1) To evaluate their herbicidal activity, compounds according to the invention are tested using a representative range of plants:
# (§2) […] After spraying, the plants are placed on greenhouse benches and are cared for in the usual manner, commensurate with conventional greenhouse practices.
# (§3) The herbicidal effects of the test compounds are assessed visually twenty-one days after spraying the foliage and the soil and are recorded on a 0-9 scale. A rating 0 indicates growth as untreated control, a rating 9 indicates death. An increase of 1 unit on the linear scale approximates to a 10% increase in the level of effect.
# Setaria viridis [2] = experiment: Post-emergence herbicidal test, SETVI; set-up: key to herbicidal effect (0-9 scale) SETVI / herbicidal rating SETVI: A rating 0 indicates growth as untreated control; a rating 9 indicates death; conditions: POST, 21 days after spraying
# Protocol: as §1, §2, §3
# Alopecurus myosuroides [3] = experiment: Pre-emergence herbicidal test, ALOMY; set-up: key to herbicidal effect (0-9 scale) ALOMY / herbicidal rating ALOMY: A rating 0 indicates growth as untreated control; a rating 9 indicates death; conditions: PRE, 21 days after spraying
# Protocol: as §1
# (§4) The pre-emergence tests involve spraying a liquid formulation of the compound onto the soil in which the seeds of the plant species mentioned above has recently been sown.
# (§5) The soil used in the tests is a prepared horticultural loam. The formulations used in the tests are prepared from solutions of the test compounds in acetone containing 0.4% by weight of an alkylphenol/ethylene oxide condensate available under the trade mark TRITON X-155. […] In these tests untreated sown soil are used as controls.
# as §3
# Hordeum vulgare [4] = experiment: Post-emergence herbicidal test, HORVW; conditions: 21 days after spraying
# Protocol: as §1
# These acetone solutions are diluted with water and the resulting formulations applied at dosage levels equivalent to about 1000, 800, 400, 250 or 100 g/ha per hectare of test compound per pot. After spraying, the plants are placed on greenhouse benches and are cared for in the usual manner, commensurate with conventional greenhouse practices.
# as §3
# Abutilon theophrasti [5] = experiment: Pre-emergence herbicidal test, ABUTH; set-up: key to herbicidal effect (0-9 scale) ABUTH / herbicidal rating ABUTH: A rating 0 indicates growth as untreated control; a rating 9 indicates death; conditions: PRE, 21 days after spraying
# Protocol: as §1, §4, §5, §3
# Glycine max [6] = experiment: Pre-emergence herbicidal test, GLXMA; conditions: PRE, 21 days after spraying
# Protocol: as §1, §4, §5, §3
# Glycine max [7] = experiment: Post-emergence herbicidal test, GLXMA; set-up: key: A rating 0 indicates growth as untreated control; a rating 9 indicates death; conditions: 21 days after spraying
# Protocol: as §1, §2, §3
# Abutilon theophrasti [8] = experiment: Post-emergence herbicidal test, ABUTH; set-up: key to herbicidal effect (0-9 scale) ABUTH / herbicidal rating ABUTH: A rating 0 indicates growth as untreated control; a rating 9 indicates death; conditions: POST, 21 days after spraying
# Protocol: as §1, §2, §3
# Galium aparine [9] = experiment: Post-emergence herbicidal test, GALAP; set-up: key to herbicidal effect (0-9 scale) GALAP / herbicidal rating GALAP: A rating 0 indicates growth as untreated control; a rating 9 indicates death; conditions: POST, 21 days after spraying
# Protocol: as §1, §2, §3
# Alopecurus myosuroides [10] = experiment: Post-emergence herbicidal test, ALOMY; set-up: key: A rating 0 indicates growth as untreated control; a rating 9 indicates death; conditions: 21 days after spraying
# Protocol: as §1, §2, §3
# Echinochloa crus-galli [11] = experiment: Post-emergence herbicidal test, ECHCG; set-up: key: A rating 0 indicates growth as untreated control; a rating 9 indicates death; conditions: 21 days after spraying
# Protocol: as §1, §2, §3
# Ipomoea hederacea [12] = experiment: Post-emergence herbicidal test, IPOHE; set-up: key to herbicidal effect (0-9 scale) IPOHE / herbicidal rating IPOHE: A rating 0 indicates growth as untreated control; a rating 9 indicates death; conditions: POST, 21 days after spraying
# Protocol: as §1, §2, §3
# Matricaria inodora [13] = experiment: Pre-emergence herbicidal test, MATIN; set-up: key to herbicidal effect (0-9 scale) MATIN / herbicidal rating MATIN: A rating 0 indicates growth as untreated control; a rating 9 indicates death; conditions: PRE, 21 days after spraying
# Protocol: as §1, §4, §5, §3
# Matricaria inodora [14] = experiment: Post-emergence herbicidal test, MATIN; set-up: key to herbicidal effect (0-9 scale) MATIN / herbicidal rating MATIN: A rating 0 indicates growth as untreated control; a rating 9 indicates death; conditions: POST, 21 days after spraying
# Protocol: as §1, §2, §3
# Stellaria media [15] = experiment: Post-emergence herbicidal test, STEME; set-up: key to herbicidal effect (0-9 scale) STEME / herbicidal rating STEME: A rating 0 indicates growth as untreated control; a rating 9 indicates death; conditions: POST, 21 days after spraying
# Protocol: as §1, §2, §3
# Ipomoea hederacea [16] = experiment: Pre-emergence herbicidal test, IPOHE; set-up: key: A rating 0 indicates growth as untreated control; a rating 9 indicates death; conditions: 21 days after spraying
# Protocol: as §1, §4, §5, §3
# Hordeum vulgare [17] = experiment: Pre-emergence herbicidal test, HORVW; set-up: key: A rating 0 indicates growth as untreated control; a rating 9 indicates death; conditions: 21 days after spraying
# Protocol: as §1, §4, §5, §3
# Triticum aestivum [18] = experiment: Pre-emergence herbicidal test, TRZAW; set-up: key: A rating 0 indicates growth as untreated control; a rating 9 indicates death; conditions: 21 days after spraying
# Protocol: as §1, §4, §5, §3
# Stellaria media [19] = experiment: Pre-emergence herbicidal test, STEME; set-up: key to herbicidal effect (0-9 scale) STEME / herbicidal rating STEME: A rating 0 indicates growth as untreated control; a rating 9 indicates death; conditions: PRE, 21 days after spraying
# Protocol: as §1, §4, §5, §3
# Setaria viridis [20] = experiment: Pre-emergence herbicidal test, SETVI; set-up: key to herbicidal effect (0-9 scale) SETVI / herbicidal rating SETVI: A rating 0 indicates growth as untreated control; a rating 9 indicates death; conditions: PRE, 21 days after spraying
# Protocol: as §1, §4, §5, §3
# Echinochloa crus-galli [21] = experiment: Pre-emergence herbicidal test, ECHCG; set-up: key: A rating 0 indicates growth as untreated control; a rating 9 indicates death; conditions: 21 days after spraying
# Protocol: as §1, §4, §5, §3
# Zea mays [22] = experiment: Post-emergence herbicidal test, ZEAMX; set-up: key: A rating 0 indicates growth as untreated control; a rating 9 indicates death; conditions: 21 days after spraying
# Protocol: as §1, §2, §3
# Galium aparine [23] = experiment: Pre-emergence herbicidal test, GALAP; set-up: key to herbicidal effect (0-9 scale) GALAP / herbicidal rating GALAP: A rating 0 indicates growth as untreated control; a rating 9 indicates death; conditions: PRE, 21 days after spraying
# Protocol: as §1, §4, §5, §3
# Zea mays [24] = experiment: Pre-emergence herbicidal test, ZEAMX; set-up: key to herbicidal effect (0-9 scale) ZEAMX / herbicidal rating ZEAMX: A rating 0 indicates growth as untreated control; a rating 9 indicates death; conditions: PRE, 21 days after spraying
# Protocol: as §1, §4, §5, §3
compound,measurement,setting,value
"COc1ccc2ccn(-n3c(=O)cc(C(F)(F)F)n(C)c3=O)c2c1 [Example 1, 6-Methoxy-1-(3-methyl-4-trifluoromethylpyrimidin-2,6-dion-1-yl)-indole]",herbicidal effect (0-9 scale) TRZAW,Triticum aestivum [1]; 250 g/ha,6
same,herbicidal effect (0-9 scale) TRZAW,Triticum aestivum [1]; 1000 g/ha,8
same,herbicidal effect (0-9 scale) SETVI,Setaria viridis [2]; 250 g/ha,9
same,herbicidal effect (0-9 scale) SETVI,Setaria viridis [2]; 1000 g/ha,9
same,herbicidal effect (0-9 scale) ALOMY,Alopecurus myosuroides [3]; 250 g/ha,9
same,herbicidal effect (0-9 scale) ALOMY,Alopecurus myosuroides [3]; 1000 g/ha,9
same,herbicidal effect (0-9 scale) HORVW,Hordeum vulgare [4]; 250 g/ha,8
same,herbicidal effect (0-9 scale) HORVW,Hordeum vulgare [4]; 1000 g/ha,8
same,herbicidal effect (0-9 scale) ABUTH,Abutilon theophrasti [5]; 250 g/ha,9
same,herbicidal effect (0-9 scale) ABUTH,Abutilon theophrasti [5]; 1000 g/ha,9
same,herbicidal effect (0-9 scale) GLXMA,Glycine max [6]; 250 g/ha,6
same,herbicidal effect (0-9 scale) GLXMA,Glycine max [6]; 1000 g/ha,6
same,herbicidal effect (0-9 scale) GLXMA,Glycine max [7]; 250 g/ha,9
same,herbicidal effect (0-9 scale) GLXMA,Glycine max [7]; 1000 g/ha,9
same,herbicidal effect (0-9 scale) ABUTH,Abutilon theophrasti [8]; 250 g/ha,9
same,herbicidal effect (0-9 scale) ABUTH,Abutilon theophrasti [8]; 1000 g/ha,9
same,herbicidal effect (0-9 scale) GALAP,Galium aparine [9]; 250 g/ha,9
same,herbicidal effect (0-9 scale) GALAP,Galium aparine [9]; 1000 g/ha,9
same,herbicidal effect (0-9 scale) ALOMY,Alopecurus myosuroides [10]; 250 g/ha,9
same,herbicidal effect (0-9 scale) ALOMY,Alopecurus myosuroides [10]; 1000 g/ha,9
same,herbicidal effect (0-9 scale) ECHCG,Echinochloa crus-galli [11]; 250 g/ha,9
same,herbicidal effect (0-9 scale) ECHCG,Echinochloa crus-galli [11]; 1000 g/ha,9
same,herbicidal effect (0-9 scale) IPOHE,Ipomoea hederacea [12]; 250 g/ha,9
same,herbicidal effect (0-9 scale) IPOHE,Ipomoea hederacea [12]; 1000 g/ha,9
same,herbicidal effect (0-9 scale) MATIN,Matricaria inodora [13]; 250 g/ha,9
same,herbicidal effect (0-9 scale) MATIN,Matricaria inodora [13]; 1000 g/ha,9
same,herbicidal effect (0-9 scale) MATIN,Matricaria inodora [14]; 250 g/ha,8
same,herbicidal effect (0-9 scale) MATIN,Matricaria inodora [14]; 1000 g/ha,9
same,herbicidal effect (0-9 scale) STEME,Stellaria media [15]; 250 g/ha,9
same,herbicidal effect (0-9 scale) STEME,Stellaria media [15]; 1000 g/ha,9
same,herbicidal effect (0-9 scale) IPOHE,Ipomoea hederacea [16]; 250 g/ha,8
same,herbicidal effect (0-9 scale) IPOHE,Ipomoea hederacea [16]; 1000 g/ha,9
same,herbicidal effect (0-9 scale) HORVW,Hordeum vulgare [17]; 250 g/ha,7
same,herbicidal effect (0-9 scale) HORVW,Hordeum vulgare [17]; 1000 g/ha,9
same,herbicidal effect (0-9 scale) TRZAW,Triticum aestivum [18]; 250 g/ha,8
same,herbicidal effect (0-9 scale) TRZAW,Triticum aestivum [18]; 1000 g/ha,9
same,herbicidal effect (0-9 scale) STEME,Stellaria media [19]; 250 g/ha,9
same,herbicidal effect (0-9 scale) STEME,Stellaria media [19]; 1000 g/ha,9
same,herbicidal effect (0-9 scale) SETVI,Setaria viridis [20]; 250 g/ha,9
same,herbicidal effect (0-9 scale) SETVI,Setaria viridis [20]; 1000 g/ha,9
same,herbicidal effect (0-9 scale) ECHCG,Echinochloa crus-galli [21]; 250 g/ha,9
same,herbicidal effect (0-9 scale) ECHCG,Echinochloa crus-galli [21]; 1000 g/ha,9
same,herbicidal effect (0-9 scale) ZEAMX,Zea mays [22]; 250 g/ha,9
same,herbicidal effect (0-9 scale) ZEAMX,Zea mays [22]; 1000 g/ha,9
same,herbicidal effect (0-9 scale) GALAP,Galium aparine [23]; 250 g/ha,9
same,herbicidal effect (0-9 scale) GALAP,Galium aparine [23]; 1000 g/ha,9
same,herbicidal effect (0-9 scale) ZEAMX,Zea mays [24]; 250 g/ha,8
same,herbicidal effect (0-9 scale) ZEAMX,Zea mays [24]; 1000 g/ha,9
